In brackets after ≈: the same amount, converted by molar mass. Where two headings read alike, the source gives them in different places.
Columns and labels:
[1] = test system: clinical isolates MRSA and MSSA; conditions: for MIC: Staphylococcus aureus, MRSA|MSSA
[2] = test system: gram-positive and gram-negative bacteria; experiment: MIC (minimum growth inhibition concentration), 2-fold serial agar plate dilution on Mueller Hinton II Agar, with concomitant alkyl gallate and salt; conditions: for MIC: 24 h
MRSA COL strain = experiment: Time required for killing bacteria, octyl gallate and propyl gallate (FIG. 1); assay type: cell-based, Staphylococcus aureus; conditions: concomitant use of octyl gallate and propyl gallate
Excerpt: FIG. 1 is a graph showing shortening of the time required for killing bacteria by the concomitant use of octyl gallate and propyl gallate against MRSA COL strain.

herpes virus (HSV-1) = experiment: Virucidal activity against HSV-1 (Tables 14, 15, FIG. 5); assay type: cell-based
[3] = test system: Candida albicans ATCC 10231; experiment: Time required for killing mold, octyl gallate and propyl gallate (FIG. 2); assay type: cell-based; conditions: concomitant use of octyl gallate and propyl gallate, FIG. 2
Excerpt: FIG. 2 is a graph showing shortening of the time required for killing mold by the concomitant use of octyl gallate and propyl gallate against Candida albicans ATCC 10231.

[4] = test system: influenza virus in MDCK cells; assay type: cell-based
fungi (mold) = experiment: MIC of octyl gallate against fungi (mold) with trisodium citrate and propyl gallate; assay type: cell-based; conditions: for MIC: 24 h, read-out: Octyl gallate MIC, SDA (+0.9% trisodium citrate), 24 hr, triplicate

SMILES: CCCCCCCCOC(=O)c1cc(O)c(O)c(O)c1 [octyl gallate]
- MIC ([1]; 24 h, read-out: MIC100, 24 h MIC, MRSA, trisodium citrate medium, propyl gallate 75 mg/L): 10 µg/mL (≈ 35.4 µM)
- MIC ([1]; 24 h, read-out: MIC100, 24 h MIC, MRSA, trisodium citrate medium, propyl gallate 100 mg/L): 5 µg/mL (≈ 17.7 µM)
- MIC ([1]; 24 h, read-out: MIC100, 24 h MIC, MRSA, trisodium citrate medium, propyl gallate 200 mg/L): 5 µg/mL (≈ 17.7 µM)
- MIC ([1]; 24 h, read-out: Octyl gallate MIC, CAMHA, isoamyl gallate 50 μg/mL, 24 h): ≤ 0.0244 µg/mL
- MIC ([1]; 24 h, read-out: Recrystalized octyl gallate MIC, MHA (+0.9% disodium hydrogen citrate), sodium ascorbate 0.5 mg/ml, DDW, 24 h): 2.5 µg/mL (≈ 8.85 µM)
- MIC ([1]; 24 h, read-out: Recrystalized octyl gallate MIC, MHA (+0.9% disodium hydrogen citrate), sodium ascorbate 0.5 mg/ml, propyl gallate 50 mg/L, 24 h): 1.25 µg/mL (≈ 4.43 µM)
- MIC ([1]; 24 h, read-out: Recrystalized octyl gallate MIC, MHA (+0.9% trisodium citrate), sodium ascorbate 0.5 mg/ml, propyl gallate 100 mg/L (with J-1216), 24 h): 2.5 µg/mL (≈ 8.85 µM)
- MIC ([1]; 24 h, read-out: Recrystalized octyl gallate MIC, MHA (+0.9% trisodium citrate), sodium ascorbate 0.5 mg/ml, propyl gallate 200 mg/L (with J-1216), 24 h): 2.5 µg/mL (≈ 8.85 µM)
- MIC ([1]; 48 h, read-out: Octyl gallate MIC, Isoamyl G none, 48 h, strain = c6 of each row): 31.2 µg/mL (≈ 111 µM)
- MIC Range, 24 h MIC, MRSA ([1]; disodium hydrogen citrate medium, DDW): 0.625 to 2.5 µg/mL
- MIC Range, 24 h MIC, MRSA ([1]; disodium hydrogen citrate medium, propyl gallate 50 mg/L): 0.625 to 1.25 µg/mL
- MIC Range, 24 h MIC, MRSA ([1]; trisodium citrate medium, J-1216 600 mg/L): 20 to 50 µg/mL
- MIC Range, 24 h MIC, MRSA ([1]; trisodium citrate medium, propyl gallate 75 mg/L): 2.5 to 10 µg/mL
- MIC Range, 24 h MIC, MRSA ([1]; trisodium citrate medium, propyl gallate 100 mg/L): 1.25 to 5 µg/mL
- MIC Range, 24 h MIC, MRSA ([1]; trisodium citrate medium, propyl gallate 200 mg/L): 0.0625 to 5 µg/mL
- MIC ([2]; read-out: Octyl gallate MIC, NaCl 4%, isoamyl gallate 100 μg/mL): 0.98 µg/mL
- MIC ([2]; read-out: Recrystalized octyl gallate MIC, Dec. 24, 2007, MHA (+0.9% disodium hydrogen citrate), sodium ascorbate 0.5 mg/ml, propyl gallate 300 mg/L): > 100 µg/mL
- change of MIC value of octyl gallate by isoamyl gallate ([2]; as the amount of NaCl added (2 to 4%) increases (Table 4)): markedly decreased
- effect on bacteria of concomitant use with propyl gallate ([2]; propyl gallate 300 mg/L, except for three strains of bacteria): completely killed
- MIC of octyl gallate lower than that of chlorhexidine gluconate, maximum ([2]; with isoamyl gallate at or below MIC and NaCl): ≤ 640 times
- time required for killing bacteria (MRSA COL strain): shortened to a large extent
- No of plaques (herpes virus (HSV-1); Table 14, octyl gallate 10 mg/L, J1816 30 mg/L, Na3citrate 0.90%): 0
- No of plaques (herpes virus (HSV-1); Table 14, octyl gallate 10 mg/L, propyl gallate 300 mg/L, J1816 120 mg/L, Na3citrate 0.90%): 0
- No of plaques (herpes virus (HSV-1); Table 14, octyl gallate 20 mg/L, J1816 60 mg/L, Na3citrate 0.90%): 0
- No of plaques (herpes virus (HSV-1); Table 14, octyl gallate 20 mg/L, propyl gallate 300 mg/L, J1816 150 mg/L, Na3citrate 0.90%): 0
- No of plaques (herpes virus (HSV-1); Table 14, octyl gallate 30 mg/L, J1816 90 mg/L, Na3citrate 0.90%): 0
- No of plaques (herpes virus (HSV-1); Table 14, octyl gallate 30 mg/L, propyl gallate 300 mg/L, J1816 180 mg/L, Na3citrate 0.90%): 0
- No of plaques (herpes virus (HSV-1); Table 14, octyl gallate 60 mg/L, J1816 180 mg/L, Na3citrate 0.90%): 0
- No of plaques (herpes virus (HSV-1); Table 14, octyl gallate 60 mg/L, J1816 180 mg/L, Na3citrate not given): 0
- No of plaques (herpes virus (HSV-1); Table 14, octyl gallate 60 mg/L, propyl gallate 300 mg/L, J1816 270 mg/L, Na3citrate 0.90%): 0
- No of plaques (herpes virus (HSV-1); Table 14, octyl gallate 100 mg/L, J1816 300 mg/L, Na3citrate 0.90%): 0
- No of plaques (herpes virus (HSV-1); Table 14, octyl gallate 100 mg/L, propyl gallate 300 mg/L, J1816 390 mg/L, Na3citrate 0.90%): 0
- No of plaques (herpes virus (HSV-1); Table 15, octyl gallate 10 mg/L, J1816 0, NaCitrate 0.90%): 48
- No of plaques (herpes virus (HSV-1); Table 15, octyl gallate 10 mg/L, propyl gallate 300 mg/L, J1816 0, NaCitrate 0.90%): 11
- No of plaques (herpes virus (HSV-1); Table 15, octyl gallate 20 mg/L, J1816 0, NaCitrate 0.90%): 0
- No of plaques (herpes virus (HSV-1); Table 15, octyl gallate 20 mg/L, propyl gallate 300 mg/L, J1816 0, NaCitrate 0.90%): 0
- No of plaques (herpes virus (HSV-1); Table 15, octyl gallate 30 mg/L, J1816 0, NaCitrate 0.90%): 0
- No of plaques (herpes virus (HSV-1); Table 15, octyl gallate 30 mg/L, propyl gallate 300 mg/L, J1816 0, NaCitrate 0.90%): 0
- No of plaques (herpes virus (HSV-1); Table 15, octyl gallate 60 mg/L, J1816 0, NaCitrate 0.90%): 0
- No of plaques (herpes virus (HSV-1); Table 15, octyl gallate 60 mg/L, propyl gallate 300 mg/L, J1816 0, NaCitrate 0.90%): 0
- No of plaques (herpes virus (HSV-1); Table 15, octyl gallate 100 mg/L, J1816 0, NaCitrate 0.90%): 0
- No of plaques (herpes virus (HSV-1); Table 15, octyl gallate 100 mg/L, propyl gallate 300 mg/L, J1816 0, NaCitrate 0.90%): 0
- virucidal activity of octyl gallate against HSV-1 (herpes virus (HSV-1); with 60 mg/L of propyl gallate, FIG. 5): marked reinforcement
- time required for killing mold [3]: shortened to a large extent
- growth inhibition of influenza virus in MDCK cells [4]: markedly reinforced
- growth of influenza virus in MDCK cells [4]: inhibits the growth
- MIC (fungi (mold); phosphate buffer (1 mM), propyl gallate 0): 20 µg/mL
- MIC (fungi (mold); propyl gallate 300 μg/mL): 10 µg/mL
- MIC (fungi (mold); propyl gallate 1000 μg/mL): 10 µg/mL
- antimicrobial activity against fungi (mold) (fungi (mold); […]): reinforced
